Laboratory results reported in PubChem BioAssay (NCI).
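All cell lines were grown in 96-well plates and treated with compound for 48 hours. GI50: concentration for 50% inhibition of growth. TGI marks complete inhibition of growth.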

How the values were obtained:
Assay in all cases: growth of human tumour cells (NCI), 48 h
[1] = test system: UACC-62 melanoma
[2] = test system: HCT-15 colon
[3] = test system: CCRF-CEM leukemia
[4] = test system: NCI-H226 lung
[5] = test system: MDA-MB-231 breast
[6] = test system: SK-MEL-28 melanoma
[7] = test system: OVCAR-4 ovarian
[8] = test system: K-562 leukemia
[9] = test system: SF-539 CNS
[10] = test system: MDA-MB-435
[11] = test system: BT-549 breast
[12] = test system: A549 NSCLC
[13] = test system: KM12 colon
[14] = test system: LOX IMVI melanoma
[15] = test system: SNB-19 CNS
[16] = test system: NCI/ADR-RES ovarian
[17] = test system: M14 melanoma
[18] = test system: SF-295 CNS
[19] = test system: CAKI-1 renal
[20] = test system: UO-31 renal
[21] = test system: RXF 393 renal
[22] = test system: NCI-H23 lung
[23] = test system: HCT-116 colon
[24] = test system: OVCAR-5 ovarian
[25] = test system: HOP-92 NSCLC
[26] = test system: SK-MEL-5 melanoma
[27] = test system: DU-145 prostate
[28] = test system: UACC-257 melanoma
[29] = test system: OVCAR-8 ovarian

COc1sc(/C=N/NC(=O)c2[nH]c3ccc(Br)cc3c2-c2ccccc2)cc1Br
GI50 [1]: 988 nM | TGI [1]: > 100 µM | GI50 [2]: 3.27 µM | TGI [2]: > 100 µM | GI50 [3]: 2110 nM | TGI [3]: > 100 µM | GI50 [4]: 2870 nM | TGI [4]: 68.9 µM | GI50 [5]: 3.21 µM | TGI [5]: > 100 µM | GI50 [6]: 4.89 µM | TGI [6]: > 100 µM | GI50 [7]: 9.78 µM | TGI [7]: > 100 µM | GI50 [8]: 508 nM | TGI [8]: > 100 µM | GI50 [9]: 1930 nM | TGI [9]: 5.51 µM | GI50 [10]: 324 nM | TGI [10]: 1800 nM | GI50 [11]: 3.3 µM | TGI [11]: 8.1 µM | GI50 [12]: 3.35 µM | TGI [12]: > 100 µM | GI50 [13]: 3.03 µM | TGI [13]: > 100 µM | GI50 [14]: 2930 nM | TGI [14]: 35.8 µM | GI50 [15]: 3.98 µM | TGI [15]: > 100 µM | GI50 [16]: 2120 nM | TGI [16]: 6.45 µM | GI50 [17]: 2250 nM | TGI [17]: > 100 µM | GI50 [18]: 2840 nM | TGI [18]: > 100 µM | GI50 [19]: 892 nM | TGI [19]: > 100 µM | GI50 [20]: 4.21 µM | TGI [20]: > 100 µM | GI50 [21]: 4.27 µM | TGI [21]: > 100 µM | GI50 [22]: 3.67 µM | TGI [22]: > 100 µM | GI50 [23]: 1250 nM | TGI [23]: > 100 µM | GI50 [24]: 3.39 µM | TGI [24]: 69.9 µM | GI50 [25]: 26.5 µM | TGI [25]: > 100 µM | GI50 [26]: 2120 nM | TGI [26]: 4.97 µM | GI50 [27]: 3.36 µM | TGI [27]: > 100 µM | GI50 [28]: > 100 µM | TGI [28]: > 100 µM | GI50 [29]: 499 nM | TGI [29]: > 100 µM
